# Results from patent US12421243B2, “Pharmaceutically effective compounds inhibiting selectively the myosin 2 isoforms” (PRINTNET KERESKEDELMI ÉS SZOLGÁLTATÓ KFT., priority 2018, dated 2025).
# Key:
# [1] = biological target: recombinant Dictyostelium miozin (Dictyostelium) (Dictyostelium discoideum, UniProt P08799); assay: actomyosin steady state ATPase measurement, Dictyostelium myosin; type: biochemical; details: for IC50: concentration required for semi-maximal inhibition of ATPase, read-out: IC50 (μM) Dicty; for % inhibition. complete Dicty: maximum value of inhibition of ATPase activity; for inhibition at 5 µM: read-out: % inhibition at 5 μM (or 10 μM if racemate) Dicty; for inhibition at 50 µM: read-out: % inhibition at 50 μM (or 100 μM if racemate) Dicty
# Text: (§1) […]; (ii) the concentration required for semi-maximal inhibition.
# [2] = biological target: isolated smooth muscle myosin (UniProt P10587); type: biochemical, chamois; details: for % inhibition at 5 μM (or 10 μM if racemate) Smooth: 5 μM (10 μM if racemate); for % inhibition at 5 μM (or 10 μM if racemate) Smooth / % inhibition at 50 μM (or 100 μM if racemate) Smooth: ATPase activity; for % inhibition at 50 μM (or 100 μM if racemate) Smooth: 50 μM (100 μM if racemate); for % inhibition. complete Smooth: maximum value of inhibition of ATPase activity
# Sequence of isolated smooth muscle myosin (P10587 whole entry): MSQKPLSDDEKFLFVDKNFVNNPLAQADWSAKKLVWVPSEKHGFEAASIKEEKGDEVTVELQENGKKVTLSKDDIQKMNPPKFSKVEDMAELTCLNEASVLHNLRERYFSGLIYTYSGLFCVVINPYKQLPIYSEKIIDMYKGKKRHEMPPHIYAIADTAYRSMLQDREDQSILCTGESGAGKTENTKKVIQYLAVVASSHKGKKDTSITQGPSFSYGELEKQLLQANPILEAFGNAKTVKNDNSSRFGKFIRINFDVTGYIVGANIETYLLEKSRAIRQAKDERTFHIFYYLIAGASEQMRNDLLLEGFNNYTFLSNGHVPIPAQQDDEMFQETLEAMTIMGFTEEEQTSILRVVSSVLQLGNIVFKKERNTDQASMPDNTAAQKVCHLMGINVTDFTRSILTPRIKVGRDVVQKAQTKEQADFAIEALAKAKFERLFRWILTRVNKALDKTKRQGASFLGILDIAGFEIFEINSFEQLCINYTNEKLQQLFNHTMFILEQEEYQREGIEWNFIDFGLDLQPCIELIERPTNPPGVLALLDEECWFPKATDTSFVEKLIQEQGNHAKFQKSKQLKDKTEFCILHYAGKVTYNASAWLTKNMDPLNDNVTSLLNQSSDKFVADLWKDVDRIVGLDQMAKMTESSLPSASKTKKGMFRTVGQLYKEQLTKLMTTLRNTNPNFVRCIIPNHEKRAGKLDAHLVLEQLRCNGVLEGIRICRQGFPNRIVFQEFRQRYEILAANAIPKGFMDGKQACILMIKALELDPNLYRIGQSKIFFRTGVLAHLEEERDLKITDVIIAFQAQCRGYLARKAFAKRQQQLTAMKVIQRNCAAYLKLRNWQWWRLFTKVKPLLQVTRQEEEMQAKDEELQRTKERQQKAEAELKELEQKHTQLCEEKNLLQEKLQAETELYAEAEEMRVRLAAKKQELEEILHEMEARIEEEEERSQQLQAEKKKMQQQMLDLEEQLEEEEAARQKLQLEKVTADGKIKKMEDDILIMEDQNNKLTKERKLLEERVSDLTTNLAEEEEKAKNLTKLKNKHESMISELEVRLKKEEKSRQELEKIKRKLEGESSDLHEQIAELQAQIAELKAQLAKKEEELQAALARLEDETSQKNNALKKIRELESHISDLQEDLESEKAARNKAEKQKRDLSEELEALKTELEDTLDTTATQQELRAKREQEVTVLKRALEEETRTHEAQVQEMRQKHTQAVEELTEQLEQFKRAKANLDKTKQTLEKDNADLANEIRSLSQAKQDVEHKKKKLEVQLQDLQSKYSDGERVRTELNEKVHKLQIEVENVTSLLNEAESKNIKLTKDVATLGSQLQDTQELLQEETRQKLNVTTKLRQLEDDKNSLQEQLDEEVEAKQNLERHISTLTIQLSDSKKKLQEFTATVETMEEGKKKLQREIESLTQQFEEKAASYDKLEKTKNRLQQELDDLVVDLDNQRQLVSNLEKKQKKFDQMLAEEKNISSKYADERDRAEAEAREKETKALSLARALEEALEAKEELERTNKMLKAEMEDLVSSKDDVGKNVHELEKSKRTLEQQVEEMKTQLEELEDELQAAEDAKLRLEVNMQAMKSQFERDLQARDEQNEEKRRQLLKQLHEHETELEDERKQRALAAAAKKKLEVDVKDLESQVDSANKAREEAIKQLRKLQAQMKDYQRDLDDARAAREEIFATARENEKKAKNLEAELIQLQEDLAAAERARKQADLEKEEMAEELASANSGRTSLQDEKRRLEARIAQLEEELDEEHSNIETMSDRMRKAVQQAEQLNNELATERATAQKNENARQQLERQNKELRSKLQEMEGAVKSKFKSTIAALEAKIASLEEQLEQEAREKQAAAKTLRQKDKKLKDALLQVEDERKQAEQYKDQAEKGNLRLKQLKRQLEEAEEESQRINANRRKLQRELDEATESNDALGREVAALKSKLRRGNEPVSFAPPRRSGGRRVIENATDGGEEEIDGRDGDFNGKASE
# [3] = test system: isolated rabbit skeletal muscle myosin (skeletal); assay: actomyosin steady state ATPase measurement, skeletal muscle myosin; type: biochemical; details: for % inhibition at 5 μM (or 10 μM if racemate) Skeletal: 5 μM (10 μM if racemate); for % inhibition at 5 μM (or 10 μM if racemate) Skeletal / % inhibition at 50 μM (or 100 μM if racemate) Skeletal: ATPase activity; for % inhibition at 50 μM (or 100 μM if racemate) Skeletal: 50 μM (100 μM if racemate); for IC50: concentration required for semi-maximal inhibition of ATPase; for % inhibition. complete Skeletal: maximum value of inhibition of ATPase activity
# Text: as §1
# [4] = biological target: isolated smooth muscle myosin (UniProt P10587); type: biochemical, chamois; details: concentration required for semi-maximal inhibition of ATPase
# Text: (ii) the concentration required for semi-maximal inhibition.
# [5] = biological target: T1, isolated porcine cardiac ventricular myocardium (cardiac) (Sus scrofa, UniProt P79293); assay: actomyosin steady state ATPase measurement, cardiac myosin; type: biochemical; details: for IC50: concentration required for semi-maximal inhibition of ATPase; for % inhibition. complete cardiac: maximum value of inhibition of ATPase activity; for inhibition at 5 µM: read-out: % inhibition at 5 μM (or 10 μM if racemate) cardiac, 5 μM (10 μM if racemate); for inhibition at 5 µM / inhibition at 50 µM: ATPase activity; for inhibition at 50 µM: read-out: % inhibition at 50 μM (or 100 μM if racemate) cardiac, 50 μM (100 μM if racemate)
# T1 construct: isolated porcine cardiac ventricular myocardium (cardiac); from tissue; host or cells: porcine cardiac ventricle
# T1 sequence (P79293 whole entry): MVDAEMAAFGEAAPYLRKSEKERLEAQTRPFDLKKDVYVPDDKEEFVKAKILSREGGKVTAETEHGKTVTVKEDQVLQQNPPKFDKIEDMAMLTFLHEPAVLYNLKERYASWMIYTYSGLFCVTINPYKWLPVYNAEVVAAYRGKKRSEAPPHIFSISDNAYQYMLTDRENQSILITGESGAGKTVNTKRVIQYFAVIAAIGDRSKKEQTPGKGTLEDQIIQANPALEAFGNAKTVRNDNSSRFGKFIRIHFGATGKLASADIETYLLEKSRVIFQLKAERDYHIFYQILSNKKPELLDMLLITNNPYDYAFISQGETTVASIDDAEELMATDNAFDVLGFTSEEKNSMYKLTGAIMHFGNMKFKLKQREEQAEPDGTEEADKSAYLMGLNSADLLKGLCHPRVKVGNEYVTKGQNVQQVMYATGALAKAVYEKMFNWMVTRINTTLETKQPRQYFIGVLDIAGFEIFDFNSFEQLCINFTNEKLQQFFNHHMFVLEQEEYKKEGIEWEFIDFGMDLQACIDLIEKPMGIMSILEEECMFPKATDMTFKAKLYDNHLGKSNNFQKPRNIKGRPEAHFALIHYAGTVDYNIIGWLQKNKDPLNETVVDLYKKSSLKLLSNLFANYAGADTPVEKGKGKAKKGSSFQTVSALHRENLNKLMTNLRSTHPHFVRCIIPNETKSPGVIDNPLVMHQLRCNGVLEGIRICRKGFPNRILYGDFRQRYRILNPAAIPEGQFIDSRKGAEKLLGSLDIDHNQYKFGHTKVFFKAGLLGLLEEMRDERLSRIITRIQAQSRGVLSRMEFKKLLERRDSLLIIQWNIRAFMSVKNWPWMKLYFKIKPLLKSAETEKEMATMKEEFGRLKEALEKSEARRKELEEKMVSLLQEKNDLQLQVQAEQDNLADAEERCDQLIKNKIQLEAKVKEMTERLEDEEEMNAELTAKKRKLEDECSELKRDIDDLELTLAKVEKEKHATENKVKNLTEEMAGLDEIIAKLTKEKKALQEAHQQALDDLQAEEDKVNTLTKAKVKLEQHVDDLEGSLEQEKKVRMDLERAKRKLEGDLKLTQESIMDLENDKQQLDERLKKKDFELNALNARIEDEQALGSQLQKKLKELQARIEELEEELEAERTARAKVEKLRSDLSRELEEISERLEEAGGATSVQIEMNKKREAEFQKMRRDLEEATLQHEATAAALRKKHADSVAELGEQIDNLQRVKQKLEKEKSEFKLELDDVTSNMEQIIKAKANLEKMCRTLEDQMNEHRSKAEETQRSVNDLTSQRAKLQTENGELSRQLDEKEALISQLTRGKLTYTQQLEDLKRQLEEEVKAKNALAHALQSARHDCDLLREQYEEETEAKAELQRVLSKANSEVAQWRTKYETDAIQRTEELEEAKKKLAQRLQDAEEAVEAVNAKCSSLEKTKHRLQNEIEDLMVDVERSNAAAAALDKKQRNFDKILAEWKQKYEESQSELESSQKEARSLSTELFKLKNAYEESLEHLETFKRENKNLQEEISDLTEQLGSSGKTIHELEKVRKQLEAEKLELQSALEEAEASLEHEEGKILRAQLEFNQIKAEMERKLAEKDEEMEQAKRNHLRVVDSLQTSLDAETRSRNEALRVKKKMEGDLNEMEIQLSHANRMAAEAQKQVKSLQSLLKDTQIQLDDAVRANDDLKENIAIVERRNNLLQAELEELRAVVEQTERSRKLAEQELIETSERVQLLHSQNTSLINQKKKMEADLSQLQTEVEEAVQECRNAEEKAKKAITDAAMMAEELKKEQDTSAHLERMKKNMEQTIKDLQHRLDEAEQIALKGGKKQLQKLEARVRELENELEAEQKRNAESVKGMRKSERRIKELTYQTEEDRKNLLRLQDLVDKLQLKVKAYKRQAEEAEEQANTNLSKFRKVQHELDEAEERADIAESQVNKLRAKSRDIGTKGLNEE
# Text: as §1
# [6] = biological target: recombinant human non-muscle myosin 2 NM2C (Homo sapiens, UniProt Q7Z406); assay: actomyosin steady state ATPase measurement, NM2C; type: biochemical; details: for IC50: concentration required for semi-maximal inhibition of ATPase; for % inhibition. complete NM2C: maximum value of inhibition of ATPase activity; for inhibition at 5 µM: read-out: % inhibition at 5 μM (or 10 μM if racemate) NM2C, 5 μM (10 μM if racemate); for inhibition at 5 µM / inhibition at 50 µM: ATPase activity; for inhibition at 50 µM: read-out: % inhibition at 50 μM (or 100 μM if racemate) NM2C, 50 μM (100 μM if racemate)
# Text: as §1
# [7] = vital parameters of live anesthetized rats monitored during isometric force measurement; type: in vivo; details: anesthetized rat; for Maximum change of vital parameters (%) blood flow: neck arteries
# Procedure: (§2) The maximum isometric force induced by the stimulation was determined after intraperitoneal injection of some of the compounds of the invention. During the measurement, the following parameters of live anesthetized rats were continuously monitored: • a) heart rate • b) blood flow in the neck arteries • c) respiratory frequency • d) blood oxygen saturation ratio
# [8] = test system: M. quadriceps femoris; assay: isometric force measurement of live, anesthetized rat M. quadriceps femoris due to electrical stimulation; type: in vivo
# Procedure: as §2, with “saturation ratio Results from live anesthetized rats are summarized in the table below.” for “saturation ratio”
# [9] = biological target: recombinant human non-muscle myosin 2 NM2A (Homo sapiens, UniProt P35579); assay: actomyosin steady state ATPase measurement, NM2A; type: biochemical; details: for IC50: concentration required for semi-maximal inhibition of ATPase; for % inhibition. complete NM2A: maximum value of inhibition of ATPase activity; for inhibition at 5 µM: read-out: % inhibition at 5 μM (or 10 μM if racemate) NM2A, 5 μM (10 μM if racemate); for inhibition at 5 µM / inhibition at 50 µM: ATPase activity; for inhibition at 50 µM: read-out: % inhibition at 50 μM (or 100 μM if racemate) NM2A, 50 μM (100 μM if racemate)
# Text: as §1
# [10] = solubility in PBS in the presence of 1% DMSO; type: physicochemical; details: phosphate buffered saline with 1% DMSO, aqueous buffer, kinetic from dmso stock, PBS w/o Mg, Ca
# [11] = biological target: recombinant human non-muscle myosin 2 NM2B (Homo sapiens, UniProt P35580); assay: actomyosin steady state ATPase measurement, NM2B; type: biochemical; details: for IC50: concentration required for semi-maximal inhibition of ATPase; for % inhibition. complete NM2B: maximum value of inhibition of ATPase activity; for inhibition at 5 µM: read-out: % inhibition at 5 μM (or 10 μM if racemate) NM2B, 5 μM (10 μM if racemate); for inhibition at 5 µM / inhibition at 50 µM: ATPase activity; for inhibition at 50 µM: read-out: % inhibition at 50 μM (or 100 μM if racemate) NM2B, 50 μM (100 μM if racemate)
# Text: as §1
SMILES,IC50 [1],% inhibition. complete Dicty [1],inhibition at 5 µM [1],inhibition at 50 µM [1],% inhibition at 5 μM (or 10 μM if racemate) Smooth [2],% inhibition at 50 μM (or 100 μM if racemate) Smooth [2],% inhibition. complete Smooth [2],% inhibition at 5 μM (or 10 μM if racemate) Skeletal [3],% inhibition at 50 μM (or 100 μM if racemate) Skeletal [3],IC50 [3],% inhibition. complete Skeletal [3],IC50 [4],IC50 [5],% inhibition. complete cardiac [5],inhibition at 5 µM [5],inhibition at 50 µM [5],IC50 [6],% inhibition. complete NM2C [6],inhibition at 5 µM [6],inhibition at 50 µM [6],further results
"Cc1cc2c(s1)N=C1N(c3ccc(OC(F)(F)F)cc3)CCC1(O)C2=O (centres unmarked) [Compound 223, 9-Hydroxy-5-methyl-12-[4-(trifluoromethoxy)phenyl]-4-thia-2,12-diazatricyclo[7.3.0.0^3,7]dodeca-1,3(7),5-trien-8-one]",11.1 µM,100%,21%,96%,79%,99%,100%,95%,95%,0.012 µM,95%,1.1 µM,2.2 µM,98%,68%,93%,3 µM,88%,52%,82%,Maximum change of vital parameters (%) heart rate ([7]; 0.2 mg i.p.): 5%; Maximum change of vital parameters (%) oxygen saturation ([7]; 0.2 mg i.p.): −10%; Maximum change of vital parameters (%) respiratory frequency ([7]; 0.2 mg i.p.): −13%; Maximum change of vital parameters (%) blood flow ([7]; 0.2 mg i.p.): 8%; Maximum change of vital parameters (%) heart rate ([7]; 1 mg i.p.): 19%; Maximum change of vital parameters (%) oxygen saturation ([7]; 1 mg i.p.): −7%; Maximum change of vital parameters (%) respiratory frequency ([7]; 1 mg i.p.): −22%; Maximum change of vital parameters (%) blood flow ([7]; 1 mg i.p.): 25%; Maximum change in isometric force at rear leg (%) ([8]; 0.2 mg i.p.): 23%; Maximum change in isometric force at rear leg (%) ([8]; 1 mg i.p.): 25%
"Nc1ccc(N2CC[C@@]3(O)C(=O)c4ccsc4N=C23)cc1 [Compound 210, (9S)-12-(4-aminophenyl)-9-hydroxy-4-thia-2,12-diazatricyclo[7.3.0.0^3,7]dodeca-1,3(7),5-trien-8-one]",> 100 µM,100%,3%,34%,9%,28%,37%,44%,84%,5.6 µM,94%,12.5 µM,6 µM,82%,36%,73%,5.2 µM,41%,18%,38%,IC50 [9]: > 100 µM; % inhibition. complete NM2A [9]: 100%; inhibition at 5 µM [9]: 0%; inhibition at 50 µM [9]: 14%; solubility [10]: 1360 µM
"CC(=O)c1ccc(N2CC[C@@]3(O)C(=O)c4ccsc4N=C23)cc1 [Compound 214, (9S)-12-(4-acetylphenyl)-9-hydroxy-4-thia-2,12-diazatricyclo[7.3.0.0^3,7]dodeca-1,3(7),5-trien-8-one]",36 µM,100%,8%,59%,6%,52%,100%,80%,97%,1.2 µM,100%,49 µM,8.8 µM,86%,30%,73%,2.9 µM,36%,21%,34%,"IC50 [9]: 1 µM; % inhibition. complete NM2A [9]: 32%; inhibition at 5 µM [9]: 25%; inhibition at 50 µM [9]: 31%; Inhibition (%) NM2C ([6]; maximum inhibition, compounds in IC50 range 1-5 μM): 36%; solubility [10]: 820 µM"
"O=C1c2ccncc2N=C2N(c3ccc(OC(F)(F)F)cc3)CCC12O (centres unmarked) [Compound 238, 3a-Hydroxy-1-[4-(trifluoromethoxy)phenyl]-1H,2H,3H,3aH,4H-pyrrolo[2,3-b]1,7-naphthyridin-4-one]",3.5 µM,41%,24%,38%,13%,28%,31%,80%,93%,0.95 µM,96%,6.3 µM,59 µM,100%,2%,47%,2.1 µM,40%,27%,38%,"Inhibition (%) Dicty ([1]; maximum inhibition, compounds in IC50 range 1-11 μM): 41%; Maximum change of vital parameters (%) heart rate ([7]; 6 mg i.p.): 3%; Maximum change of vital parameters (%) oxygen saturation ([7]; 6 mg i.p.): −12%; Maximum change of vital parameters (%) respiratory frequency ([7]; 6 mg i.p.): −18%; Maximum change of vital parameters (%) blood flow ([7]; 6 mg i.p.): −10%; Maximum change in isometric force at rear leg (%) ([8]; 6 mg i.p.): 40%"
"O=C1c2sccc2N=C2N(c3ccccc3)CCC12O (centres unmarked) [Compound 183, 7-Hydroxy-4-phenyl-10-thia-2,4-diazatricyclo[7.3.0.0^3,7]dodeca-1(9),2,11-trien-8-one]",5 µM,100%,26%,80%,17%,51%,66%,80%,93%,1 µM,95%,15 µM,8 µM,84%,33%,73%,60 µM,83%,6%,37%,IC50 [11]: 12 µM; % inhibition. complete NM2B [11]: 56%; inhibition at 5 µM [11]: 16%; inhibition at 50 µM [11]: 45%; IC50 [9]: 87 µM; % inhibition. complete NM2A [9]: 100%; inhibition at 5 µM [9]: 4%; inhibition at 50 µM [9]: 37%
"Cc1cc2c(s1)N=C1N(c3ccccc3)CCC1(O)C2=O (centres unmarked) [Compound 198, 9-Hydroxy-5-methyl-12-phenyl-4-thia-2,12-diazatricyclo[7.3.0.0^3,7]dodeca-1,3(7),5-trien-8-one]",5 µM,100%,51%,96%,44%,88%,100%,90%,99%,1 µM,100%,7.6 µM,4 µM,100%,64%,89%,6.8 µM,100%,51%,84%,"Inhibition (%) cardiac ([5]; maximum inhibition, compounds in IC50 range 3-6 μM): 100%; IC50 [11]: 15.1 µM; % inhibition. complete NM2B [11]: 100%; inhibition at 5 µM [11]: 24%; inhibition at 50 µM [11]: 80%; IC50 [9]: 15 µM; % inhibition. complete NM2A [9]: 100%; inhibition at 5 µM [9]: 26%; inhibition at 50 µM [9]: 79%"
